Experimental data: US8981046B2, “Synthetic cell platforms and methods of use thereof” (The Regents of the University of California, priority 2007, dated 2015)

Experiments:
[1] = system: neural stem cells; experiment: Flow cytometry binding of clonal peptide-displaying bacteria to neural stem cells; design: species or system rat; conditions: clonal bacterial populations after third round of selection
From the text: This technology has also been used to identify peptides capable of binding to the surface of adult neural stem cells. Both N- and C-terminal peptide display libraries were screened on NSCs, with the first two rounds selected through centrifugal pelleting of NSCs to isolate bacterial clones displaying binding peptides, and the third round selected through FACS. Following the third round, numerous peptide clones were sequenced (˜30 novel sequences determined to date).
Three different, validated peptide libraries were pooled to generate a large library (>10^10 independent clones) and were used for selection and screening.^79 These libraries include a random 15-mer (—X15—) fused to either the N- or C-terminus of the CPX display scaffold and an N-terminal constrained library of the form X2CX7CX2. The library has been made intrinsically fluorescent using a bicistronic expression vector to enable co-expression of a green fluorescent protein optimized for FACS.
The bacterial library was screened for binding peptides. For the first two cycles, screening was again conducted by co-sedimentation, where as many as 10^8 NSCs suspended via mechanical disruption in 0.5 mM EDTA as described^82 were incubated with 10^10 bacteria prior to several gentle centrifugations and rinses. The resulting mixture was added directly to bacterial media (LB) for expansion of the binding clones. The second cycle repeated this process with 10-fold fewer bacteria for higher stringency. In the third cycle, after incubation with 10^6 NSCs and washing, cells were sorted (as in FIGS. 5-6) using a DAKO-Cytomation MoFlo flow cytometer in the UC Berkeley Cancer Center to stringently isolate bacteria that are bound to NSCs. The resulting sorted bacteria were expanded. Plasmid DNA was isolated from a number of individual clones (at least 100)^79 and subjected to DNA sequencing to identify the peptide responsible for binding to the NSC surface.
Bacterial peptide display libraries were constructed, as described above, and tested for binding capacity to neural stem cells. Clonal populations of the bacterial peptide display libraries after the third round of selection were analyzed via flow cytometry to measure the binding capacity of the clones. Sequences of the clones were determined through DNA sequence of the plasmid expressed by the bacteria. Table 5 presents amino acid sequences of peptides and the binding capacity to NSCs of bacterial clones displaying the peptides.

[2] = system: H1 hES cells; experiment: H1 hES cell culture on peptide-conjugated IPN surfaces in NC-SFM; format: cell-based, human; conditions: for hESC culture outcome (Oct4, survival): H1 cells, NC-SFM, peptide-conjugated IPN
Experimental: To take an important step towards a fully chemically defined microenvironment, H1 hES cells were cultured,^17 for which a serum-free, defined medium has been developed. In addition, this feeder-free system involves culturing cells on tissue culture polystyrene coated with Matrigel, an ECM mixture of predominantly […], collagen IV, and heparan sulfate.^19, 82 Cells were grown in non-conditioned, serum free medium (NC-SFM), which consists of X-VIVO 10 (Cambrex, Walkersville, Md.) medium supplemented with 0.5 ng/mL TGF-β1 and 80 ng/mL FGF-2 (Invitrogen).
Cultures on Matrigel consisted of Oct4^+ hESC colonies interspersed with differentiated, Oct4-stromal cells derived from the hESCs, as previously described (note that the hESCs can be selectively passaged by timing the enzymatic digest).^82 H1 cells were also cultured in the NC-SFM on bsp-RGD(15) conjugated IPN surfaces (identical to those in FIGS. 3-4). […] Both HSF6 cells on the sIPN (FIG. 7) and H1 cells on the IPN were able to maintain Oct4 expression for 3 passages (˜10 days).

[3] = system: neural stem cells; experiment: NSC adhesion and proliferation on peptide-modified IPNs; format: cell-based, rat
From the text: Neural stem cells are typically cultured on surfaces consisting of a poly(styrene)-based material with a passively adsorbed, animal-derived extracellular matrix (ECM) protein such as laminin or fibronectin.^67, 69 However, both animal- and human-derived ECM or proteins likely contain variable splice and glycoforms, offer limited micro- and nano-scale control of solid-phase signaling, pose problems with lot to lot variability, and otherwise present problems for therapeutic application.^16, 70 The ability of a peptide-modified interpenetrating polymer network (IPN) synthesized from acrylamide (AAm), poly(ethylene glycol) monomethyl ether monomethacrylate (pEGMA), and acrylic acid (AAc) monomers to support NSC growth was explored. NSCs isolated from the adult rat hippocampus,^67 were seeded onto 15 amino-acid bone sialoprotein RGD peptide [bsp-RGD(15)]-modified IPNs at various cell densities over four orders of magnitude.
FIG. 3.a-d) Bright field images of neural stem cells grown on peptide-modified IPNs or laminin-I in proliferating media conditions (1.2 nM FGF-2). e) Growth curves for proliferation of neural stem cells as assayed by a total nucleic acid stain. Data represent mean±standard deviation of 3-5 samples. Surfaces not in the same group (*, §, †, or ‡) were statistically different from one another (p<0.05; ANOVA between groups with Tukey-Kramer Honestly Significant Difference post-hoc test).

[4] = system: neural stem cells; experiment: qRT-PCR marker expression / differentiation of NSCs on peptide-modified hydrogels; format: cell-based, rat
From the text: Stem cells are defined not only by their self-renewal but also their ability to undergo differentiation into one or more phenotypes. […] Therefore, the synthetic IPN, displaying an integrin-binding peptide, was able to substitute for laminin in supporting NSC proliferation and differentiation.
The effects of varying peptide identity and density on NSC differentiation were explored.
The box plots summarize the distribution of points, where the thick line signifies the median and the ends of the box are the 25th and 75th quartiles.

[5] = system: neural stem cells; experiment: Initial NSC attachment on peptide-grafted IPNs (Cyquant, 6 hours); format: cell-based, rat; conditions: various grafting concentrations
Experimental: IPNs were grafted with RGD, 7C-9, and 7C-24 peptides at various concentrations. After allowing neural stem cells attach to the surface for 6 hours, the amount of cells was quantified with Cyquant, a fluorescent DNA-binding dye.

[6] = system: neural stem cells; experiment: NSC proliferation on peptide-grafted IPNs after 5 days (Cyquant); format: cell-based, rat; conditions: for cell proliferation: Cyquant, normalized to cells seeded
From the text: Cell proliferation was quantified on peptide-grafted IPN surfaces after 5 days with Cyquant. The cell number was normalized to the amount of cells seeded on the IPN surfaces.

[7] = system: Akt; experiment: Akt activation in neural stem cells on peptide hydrogels (Western blotting); format: cell-based, rat; conditions: NSCs on biomimetic hydrogel
From the text: The phosphoinositide-3 kinase (PI 3-kinase) signaling pathway, which can be activated by numerous cell surface receptors, has been implicated in regulating cell survival and proliferation in a number of contexts.^90-92 After ligation and activation of canonical receptors, phosphorylation of receptor tails on specific tyrosine residues recruits PI 3-kinase to the cell surface to phosphorylate phosphoinositide lipids. These lipids then recruit several kinases, including PDK1 and Akt. Phosphorylation of the latter by the former activates Akt, which then modulates a number of downstream effectors (such as Bad, mTOR, forkhead transcription factors, GSK-3β, and others) important in cell survival, proliferation, and other functions.^92, 93 Very importantly, PI 3-kinase and Akt signaling may be a general pathway important for stem cell proliferation and self-renewal. […] Finally, chemical or genetic inhibition of this pathway inhibits self-renewal, whereas overexpression of transducers in this pathway promotes self-renewal in a mitogen-independent fashion.
FIG. 8. […] Likewise relocalization of a PH-GFP genetic sensor to the cell surface acts as a sensor of PI 3-kinase signal activation after FGF-2 addition. An analogous genetic sensor of Akt based on FRET has been generated.^6

[8] = peptide hydrogel vs laminin, proliferating or differentiating media

| Sequence | % NSCs with Bacteria [1] [%] | also measured |
| --- | --- | --- |
| WVCNDLIHHFCVW [Co-15] | 70.9 | – |
| GECFYYVMNTCVW [Clone 7C-6] | 61.8 | – |
| GGCRWYAKWVCVW [Co-3] | 75.7 | – |
| LECPGESKYYCIY [Co-11] | 72.7 | – |
| WLCLDKNCMACVW [Clone 7C-8] | 68.8 | – |
| WECAEESKFWCVF [Co-17] | 72.1 | – |
| LNCAMYNACIW [Clone 7C-14] | 54.5 | – |
| WTWESAFAGRWEVGD [Co-8] | 61.7 | – |
| WVCIWERFKSCNE [Clone 7C-20] | 65.7 | – |
| GFVLVWSYTCRCWGK [Clone 15-50] | 64.9 | – |
| WFCLLGRSAYCVR [Clone 7C-3] | 71.9 | – |
| DHKFGLVMLNKYAYAG [Clone 15-2] | 75.9 | – |
| WYCFRENKYVCVM [Clone 7C-1] | 75.2 | – |
| WLCKGSNKYMCEW [Clone 7C-17] | 67.8 | – |
| CGGNGEPRGETYRAY [bsp-RGE(15), negative control peptide] | – | hESC culture outcome (Oct4, survival) [2]: cells predominantly died; cell adhesion and morphology on peptide-modified IPN ([3]; proliferating media conditions (20 ng/ml FGF-2)): did not support attachment; neuronal differentiation / neuronal marker expression ([4]; as bsp-RGD(15) density was decreased and this peptide increased): neuronal differentiation decreased; cell attachment [5]: below the detection limit of the assay; cell proliferation [6]: little or no cells detached |
| ESGLKVMCMKYYCMA [Clone 15-52] | 63.3 | – |
| STCSWVSSYVCIM [Co-13] | 64.8 | – |
| ESCWYQIMYKCAN [Clone 7C-2] | 55.2 | – |
| KLCCFDKGYYCMR [Clone 7C-9] | 71.3 | cell proliferation at similar surface peptide concentration ([6]; low peptide surface concentrations, vs RGD surfaces): slower proliferation |
| WQCGRFWCIHCLW [Co-19] | 50.6 | – |
| WVCLWRHRGDCSI [Co-12] | 74.3 | – |
| RLCCWKTQYFCEI [Co-20] | 70.9 | – |
| WVCNKLGVYACEY [Clone 7C-19] | 20.5 | – |
| LCCESYICALCHY [Clone 7C-11] | 37.7 | – |

| Sequence | % NSCs with Bacteria [1] [%] | also measured |
| --- | --- | --- |
| VWCGMFGKRRCVT [Co-22] | 75.6 | – |
| SKCWGWTPYYCVA [Co-9] | 75.7 | – |
| MYCERDSKYWCIH [Co-21] | 70.9 | – |
| WNCIKGSSWACVW [Clone 7C-21] | 75.5 | – |
| WRCLGDGYHACVR [Co-10] | 72.7 | – |
| FWCIRGEYWVCDR [Clone 7C-12] | 64.5 | – |
| WMCSGVQPNACVW [Clone 7C-22] | 46.9 | – |
| LECTERGDFNCFV [Clone 7C-7] | 47.8 | – |
| WDCGKKNAWMCIW [Co-5] | 67.4 | – |
| SDWSVLLSCERWYCI [Clone 15-16] | 63.9 | – |
| LVCNRQNPWVCYI [Co-23] | 71.1 | – |
| WSCPKVNQYACFW [Co-2] | 74.8 | – |
| IWCGSRFGCWCKP [Clone 7C-5] | 65.6 | – |
| DLCTYGHLWLGNGRP [Clone 15-59] | 22.5 | – |
| RRELVRMTDWVWVSG [Clone 15-32] | 70.4 | – |
| WWCKKPEYWYCIW [Co-18] | 71.3 | – |
| WWCDMRGDSRCSG [Clone 7C-24] | 61.7 | – |
| CGGNGEPRGDTYRAY [bsp-RGD(15), 15 amino-acid bone sialoprotein RGD peptide] | – | maintenance of Oct4 expression ([2]; H1 cells on the IPN (~10 days)): 3 passages; hESC culture outcome (Oct4, survival) [2]: high Oct4 levels in large hESC colonies; NSC proliferation ([3]; highest peptide density, vs laminin-coated surfaces, p<0.05): slightly faster cell proliferation than standard laminin-coated surfaces; cell adhesion on IPN with lower peptide density ([3]; lower or no bsp-RGD(15), proliferating media): cells did not adhere effectively; nestin expression (qRT-PCR) ([4]; 21 pmol·cm^−2 peptide hydrogel vs laminin, 1.2 nM FGF-2): statistically indistinguishable levels of nestin; GFAP expression (qRT-PCR) [4, 8]: equal levels; β-tubulin III expression (qRT-PCR) [4, 8]: equal levels; activation of Akt [7]: activation of Akt to a greater extent than a surface displaying the negative control bsp-RGE(15) peptide; cell proliferation [6]: much higher amount of cell proliferation than 7C-9 and 7C-24-grafted surfaces |
| QCCQLRGDAVCNC [Clone 7C-15] | 54.0 | – |
| LEDAMGWALSWGHIW [Clone 15-6] | 70.2 | – |
| QGCAFVTYWACIF [Co-16] | 71.9 | – |
| YMCMSRGDATCDV [Clone 7C-4] | 62.0 | – |
| SLCAAYNRWACIW [Co-1] | 73.8 | – |
